Test system: MV-4-11 cells
Test: Gene expression microarray analysis (Affymetrix PrimeView) and GSEA
Assay type: cell-based, human
Set-up: RFU PODN (11730768_x_at) / Fold change /veh PODN (11730768_x_at) / RFU LINC00158 (11744669_a_at) / Fold change /veh LINC00158 (11744669_a_at) / RFU DUSP10 (11751237_a_at) / Fold change /veh DUSP10 (11751237_a_at) / RFU ID3 (11757404_x_at) / Fold change /veh ID3 (11757404_x_at) / RFU PLEKHG5 (11737974_s_at) / Fold change /veh PLEKHG5 (11737974_s_at) / RFU LRRC4B (11730491_at) / Fold change /veh LRRC4B (11730491_at) / RFU GIMAP4 (11747438_a_at) / Fold change /veh GIMAP4 (11747438_a_at) / RFU KRT8 (11758183_x_at) / Fold change /veh KRT8 (11758183_x_at) / RFU CNN1 (11734310_a_at) / Fold change /veh CNN1 (11734310_a_at) / RFU VPS37D (11726825_at) / Fold change /veh VPS37D (11726825_at) / RFU C10orf10 (11716522_x_at) / Fold change /veh C10orf10 (11716522_x_at) / RFU KIR2DL2 /// KIR2DL4 /// KIR2DL5A /// KIR2DL5B /// KIR2DS1 /// KIR2DS2 /// KIR2DS3 /// KIR2DS4 /// KIR3DL3 /// KIR3DL3 /// KIR3DS1 (11738374_at) / Fold change /veh KIR2DL2 /// KIR2DL4 /// KIR2DL5A /// KIR2DL5B /// KIR2DS1 /// KIR2DS2 /// KIR2DS3 /// KIR2DS4 /// KIR3DL3 /// KIR3DL3 /// KIR3DS1 (11738374_at) / RFU C1QL1 (11718748_at) / Fold change /veh C1QL1 (11718748_at) / RFU TMPRSS4 (11747572_a_at) / Fold change /veh TMPRSS4 (11747572_a_at) / RFU HAMP (11756126_x_at) / Fold change /veh HAMP (11756126_x_at) / RFU RNFT2 (11725882_a_at) / Fold change /veh RNFT2 (11725882_a_at) / RFU NR4A2 (11747474_a_at) / Fold change /veh NR4A2 (11747474_a_at) / RFU ABCC12 (11746883_a_at) / Fold change /veh ABCC12 (11746883_a_at) / RFU TMEM136 (11760407_x_at) / Fold change /veh TMEM136 (11760407_x_at) / RFU CLDN22 /// WWC2 (11732394_at) / Fold change /veh CLDN22 /// WWC2 (11732394_at) / RFU HLA-DPB1 (11760878_x_at) / Fold change /veh HLA-DPB1 (11760878_x_at) / RFU SPINT1 (11716480_a_at) / Fold change /veh SPINT1 (11716480_a_at) / RFU GAP43 (11754022_s_at) / Fold change /veh GAP43 (11754022_s_at) / RFU A4GNT (11735810_at) / Fold change /veh A4GNT (11735810_at) / RFU PRB3 (11715151_x_at) / Fold change /veh PRB3 (11715151_x_at) / RFU TUBB4B (11761932_at) / Fold change /veh TUBB4B (11761932_at) / RFU CAPN14 (11732068_a_at) / Fold change /veh CAPN14 (11732068_a_at) / RFU TMCC2 (11721928_a_at) / Fold change /veh TMCC2 (11721928_a_at) / RFU IRGQ (11745062_a_at) / Fold change /veh IRGQ (11745062_a_at) / RFU FAM174B (11720279_a_at) / Fold change /veh FAM174B (11720279_a_at) / RFU TMPRSS4 (11748680_a_at) / Fold change /veh TMPRSS4 (11748680_a_at) / RFU FAM212B (11763350_a_at) / Fold change /veh FAM212B (11763350_a_at) / RFU PLEKHG5 (11743358_a_at) / Fold change /veh PLEKHG5 (11743358_a_at) / RFU ZSCAN30 (11745921_a_at) / Fold change /veh ZSCAN30 (11745921_a_at) / RFU CMKLR1 (11741424_a_at) / Fold change /veh CMKLR1 (11741424_a_at) / RFU LOC101060620 /// MAPK8IP1 (11723275_at) / Fold change /veh LOC101060620 /// MAPK8IP1 (11723275_at) / RFU SPTSSB (11747773_x_at) / Fold change /veh SPTSSB (11747773_x_at) / RFU PRSS12 (11739890_at) / Fold change /veh PRSS12 (11739890_at) / RFU BIN1 (11741810_x_at) / Fold change /veh BIN1 (11741810_x_at) / RFU WNT11 (11732464_a_at) / Fold change /veh WNT11 (11732464_a_at) / RFU C10orf10 (11716521_a_at) / Fold change /veh C10orf10 (11716521_a_at) / RFU C5orf56 (11738089_at) / Fold change /veh C5orf56 (11738089_at) / RFU CYB561 (11721691_x_at) / Fold change /veh CYB561 (11721691_x_at) / RFU ANKRD19P (11752326_a_at) / Fold change /veh ANKRD19P (11752326_a_at) / RFU OR2T12 /// OR2T33 /// OR2T8 (11738714_s_at) / Fold change /veh OR2T12 /// OR2T33 /// OR2T8 (11738714_s_at) / RFU VCAN (11748164_a_at) / Fold change /veh VCAN (11748164_a_at) / RFU JSRP1 (11732532_at) / Fold change /veh JSRP1 (11732532_at) / RFU KRTAP10-11 (11738290_x_at) / Fold change /veh KRTAP10-11 (11738290_x_at) / RFU MYO3A (11730013_a_at) / Fold change /veh MYO3A (11730013_a_at) / RFU EBF3 (11725865_a_at) / Fold change /veh EBF3 (11725865_a_at) / RFU CAMK2N1 (11719241_x_at) / Fold change /veh CAMK2N1 (11719241_x_at) / RFU C5orf56 (11738088_a_at) / Fold change /veh C5orf56 (11738088_a_at) / RFU OLFML3 (11715873_a_at) / Fold change /veh OLFML3 (11715873_a_at) / RFU LOC100653217 /// NTM (11731650_a_at) / Fold change /veh LOC100653217 /// NTM (11731650_a_at) / RFU MAPK11 (11762145_a_at) / Fold change /veh MAPK11 (11762145_a_at) / RFU FIZ1 (11724087_x_at) / Fold change /veh FIZ1 (11724087_x_at) / RFU OASL (11726364_x_at) / Fold change /veh OASL (11726364_x_at) / RFU SOX15 (11748057_x_at) / Fold change /veh SOX15 (11748057_x_at) / RFU CD79A (11719716_a_at) / Fold change /veh CD79A (11719716_a_at) / RFU HIST1H1D (11736915_at) / Fold change /veh HIST1H1D (11736915_at) / RFU CASKIN2 (11723855_a_at) / Fold change /veh CASKIN2 (11723855_a_at) / RFU LOC730098 (11760151_x_at) / Fold change /veh LOC730098 (11760151_x_at) / RFU OR4N2 (11742367_at) / Fold change /veh OR4N2 (11742367_at) / RFU PRRT2 (11749266_a_at) / Fold change /veh PRRT2 (11749266_a_at) / RFU SNX32 (11753110_a_at) / Fold change /veh SNX32 (11753110_a_at) / RFU CDHR5 (11726645_a_at) / Fold change /veh CDHR5 (11726645_a_at) / RFU RCAN1 (11760418_a_at) / Fold change /veh RCAN1 (11760418_a_at) / RFU FAM167A (11723789_a_at) / Fold change /veh FAM167A (11723789_a_at) / RFU FAM26E (11764081_at) / Fold change /veh FAM26E (11764081_at) / RFU ISYNA1 (11749810_s_at) / Fold change /veh ISYNA1 (11749810_s_at) / RFU ACY1 (11761880_at) / Fold change /veh ACY1 (11761880_at) / RFU 11764098_at / Fold change /veh 11764098_at / RFU SAMD14 (11745864_x_at) / Fold change /veh SAMD14 (11745864_x_at) / RFU NPB (11741838_a_at) / Fold change /veh NPB (11741838_a_at) / RFU TMPRSS6 (11731388_a_at) / Fold change /veh TMPRSS6 (11731388_a_at) / RFU KRTAP10-2 (11738614_at) / Fold change /veh KRTAP10-2 (11738614_at) / RFU ARHGAP8 /// PRR5-ARHGAP8 (11727945_x_at) / Fold change /veh ARHGAP8 /// PRR5-ARHGAP8 (11727945_x_at) / RFU KRTAP5-7 /// NADSYN1 (11734609_at) / Fold change /veh KRTAP5-7 /// NADSYN1 (11734609_at) / RFU RASL12 (11751679_a_at) / Fold change /veh RASL12 (11751679_a_at) / RFU CDKN2B (11736163_a_at) / Fold change /veh CDKN2B (11736163_a_at) / RFU PRF1 (11729649_at) / Fold change /veh PRF1 (11729649_at) / RFU, ZNF638 /// ZNF638-IT1 / Fold change vs veh, ZNF638 /// ZNF638-IT1 / RFU, PANK3 / Fold change vs veh, PANK3 / RFU, SH3YL1 / Fold change vs veh, SH3YL1 / RFU, ZEB2 / Fold change vs veh, ZEB2 / RFU, NRIP1 / Fold change vs veh, NRIP1 / RFU, PTTG1IP / Fold change vs veh, PTTG1IP / RFU, CAPN2 / Fold change vs veh, CAPN2 / RFU, MED14 / Fold change vs veh, MED14 / RFU, SNORA58 / Fold change vs veh, SNORA58 / RFU, C1orf63 / Fold change vs veh, C1orf63 / RFU, LRRFIP1 / Fold change vs veh, LRRFIP1 / RFU, NDUFAF7 / Fold change vs veh, NDUFAF7 / RFU, SLC12A2 / Fold change vs veh, SLC12A2 / RFU, IBTK / Fold change vs veh, IBTK / RFU, ESF1 / Fold change vs veh, ESF1 / Fold change vs veh, TMEM50B / RFU, TAOK1 / Fold change vs veh, TAOK1 / RFU, ACBD3 / Fold change vs veh, ACBD3 / RFU, TMA16 / Fold change vs veh, TMA16 / RFU, RWDD3 / Fold change vs veh, RWDD3 / RFU, BCAT1 / Fold change vs veh, BCAT1 / RFU, EDEM3 / Fold change vs veh, EDEM3 / RFU, TMEM33 / Fold change vs veh, TMEM33 / RFU, WDR75 / Fold change vs veh, WDR75 / RFU, AHCTF1 / Fold change vs veh, AHCTF1 / RFU, TFRC / Fold change vs veh, TFRC / RFU, ZDHHC17 / Fold change vs veh, ZDHHC17 / RFU, NOM1 / Fold change vs veh, NOM1 / RFU, ARL8B / Fold change vs veh, ARL8B / RFU, ZBTB11 / Fold change vs veh, ZBTB11 / RFU, TAMM41 / Fold change vs veh, TAMM41 / RFU, KIAA1704 /// LOC100996395 / Fold change vs veh, KIAA1704 /// LOC100996395 / RFU, ING1 / Fold change vs veh, ING1 / RFU, TRMT61B / Fold change vs veh, TRMT61B / RFU, FUBP3 / Fold change vs veh, FUBP3 / RFU, TP53 / Fold change vs veh, TP53 / RFU, TNKS2 / Fold change vs veh, TNKS2 / RFU, ZFP14 / Fold change vs veh, ZFP14 / RFU, ACTR2 / Fold change vs veh, ACTR2 / RFU, PPP3R1 / Fold change vs veh, PPP3R1 / RFU, PIK3R1 / Fold change vs veh, PIK3R1 / RFU, HNRNPA1 / Fold change vs veh, HNRNPA1 / RFU, RNF170 / Fold change vs veh, RNF170 / RFU, ZNF28 / Fold change vs veh, ZNF28 / RFU, RNGTT / Fold change vs veh, RNGTT / RFU, OGT / Fold change vs veh, OGT / RFU, BRD1 / Fold change vs veh, BRD1 / RFU, MARS / Fold change vs veh, MARS / RFU, ZNF655 / Fold change vs veh, ZNF655 / RFU, FAHD1 / Fold change vs veh, FAHD1 / RFU, BDP1 / Fold change vs veh, BDP1 / RFU, LRRCC1 / Fold change vs veh, LRRCC1 / RFU, ARID1A / Fold change vs veh, ARID1A / RFU, ZNF146 / Fold change vs veh, ZNF146 / RFU, ZNF330 / Fold change vs veh, ZNF330 / RFU, GPN3 / Fold change vs veh, GPN3 / RFU, C9orf123 / Fold change vs veh, C9orf123 / RFU, N4BP2L2 / Fold change vs veh, N4BP2L2 / RFU, ARFIP1 / Fold change vs veh, ARFIP1 / RFU, FAM179B / Fold change vs veh, FAM179B / RFU, BCL10 / Fold change vs veh, BCL10 / RFU, UHRF1BP1L / Fold change vs veh, UHRF1BP1L / RFU, BET1 / Fold change vs veh, BET1 / RFU, CNOT2 / Fold change vs veh, CNOT2 / RFU, ZNF268 / Fold change vs veh, ZNF268 / Fold change vs veh, ZNF507 / RFU, DGCR2 / Fold change vs veh, DGCR2 / RFU, WDSUB1 / Fold change vs veh, WDSUB1 / Fold change vs veh, HSP90B1 /// MIR3652 / RFU, ADSS / Fold change vs veh, ADSS / RFU, GK / Fold change vs veh, GK / RFU, ZNF148 / Fold change vs veh, ZNF148 / RFU, TAF9 / Fold change vs veh, TAF9 / RFU, SLC1A5 / Fold change vs veh, SLC1A5 / RFU, SLMO2 / Fold change vs veh, SLMO2 / RFU, ABCC4 / Fold change vs veh, ABCC4 / RFU, LOC101060439 /// RAP1B / Fold change vs veh, LOC101060439 /// RAP1B / RFU, RFX7 / Fold change vs veh, RFX7 / RFU, GTPBP10 / Fold change vs veh, GTPBP10 / RFU, CNEP1R1 / Fold change vs veh, CNEP1R1 / RFU, BIVM-ERCC5 /// ERCC5 / Fold change vs veh, BIVM-ERCC5 /// ERCC5 / RFU, ILF3 / Fold change vs veh, ILF3 / RFU 11762660_at / Fold change /veh 11762660_at / RFU VCAN (11757783_s_at) / Fold change /veh VCAN (11757783_s_at) / RFU DDX43 (11728927_at) / Fold change /veh DDX43 (11728927_at) / RFU KRT8 (11758188_x_at) / Fold change /veh KRT8 (11758188_x_at) / RFU NKD1 (11759106_at) / Fold change /veh NKD1 (11759106_at) / RFU SRD5A1 (11742802_a_at) / Fold change /veh SRD5A1 (11742802_a_at) / RFU TPSAB1 /// TPSB2 (11721975_s_at) / Fold change /veh TPSAB1 /// TPSB2 (11721975_s_at) / RFU GSTM3 (11746129_a_at) / Fold change /veh GSTM3 (11746129_a_at) / RFU IL23R (11737362_x_at) / Fold change /veh IL23R (11737362_x_at) / RFU TMEM51 (11727254_a_at) / Fold change /veh TMEM51 (11727254_a_at) / RFU PIWIL2 (11732686_x_at) / Fold change /veh PIWIL2 (11732686_x_at) / RFU ORM1 (11744905_x_at) / Fold change /veh ORM1 (11744905_x_at) / RFU CCDC152 (11743942_at) / Fold change /veh CCDC152 (11743942_at) / RFU ECM1 (11717891_a_at) / Fold change /veh ECM1 (11717891_a_at) / RFU IL23R (11748794_a_at) / Fold change /veh IL23R (11748794_a_at) / RFU TNFAIP8L3 (11732012_x_at) / Fold change /veh TNFAIP8L3 (11732012_x_at) / RFU MBOAT4 (11741988_at) / Fold change /veh MBOAT4 (11741988_at) / RFU 11764193_at / Fold change /veh 11764193_at / RFU TMEM53 (11763286_at) / Fold change /veh TMEM53 (11763286_at) / RFU MAGEB2 (11727129_at) / Fold change /veh MAGEB2 (11727129_at) / RFU TMEM200A (11744735_a_at) / Fold change /veh TMEM200A (11744735_a_at) / RFU CCDC152 (11751479_a_at) / Fold change /veh CCDC152 (11751479_a_at) / RFU FAM211A (11726209_a_at) / Fold change /veh FAM211A (11726209_a_at) / RFU RGS16 (11746705_a_at) / Fold change /veh RGS16 (11746705_a_at) / RFU VCAN (11755009_s_at) / Fold change /veh VCAN (11755009_s_at) / RFU RHOB (11743442_s_at) / Fold change /veh RHOB (11743442_s_at) / RFU RGS16 (11720943_a_at) / Fold change /veh RGS16 (11720943_a_at) / RFU RGS16 (11720944_at) / Fold change /veh RGS16 (11720944_at) / RFU, VPS4B / Fold change vs veh, VPS4B / RFU, CREB1 / Fold change vs veh, CREB1 / RFU, DNAJC13 / Fold change vs veh, DNAJC13 / RFU, GNAQ / Fold change vs veh, GNAQ / RFU, CDK5R1 / Fold change vs veh, CDK5R1 / RFU, ZRANB3 / Fold change vs veh, ZRANB3 / RFU, CUL4A / Fold change vs veh, CUL4A / RFU, CCNY / Fold change vs veh, CCNY / RFU, UFL1 / Fold change vs veh, UFL1 / RFU, COG3 / Fold change vs veh, COG3 / RFU, DIAPH2 / Fold change vs veh, DIAPH2 / RFU, SKA2 / Fold change vs veh, SKA2 / RFU, AFF3 / Fold change vs veh, AFF3 / RFU, LMF1 / Fold change vs veh, LMF1 / RFU, IPO11 / Fold change vs veh, IPO11 / RFU, DFFB / Fold change vs veh, DFFB / RFU, FOXP1 / Fold change vs veh, FOXP1 / RFU, CARD8 / Fold change vs veh, CARD8 / RFU, STRN3 / Fold change vs veh, STRN3 / RFU, ADK / Fold change vs veh, ADK / RFU, RASSF2 / Fold change vs veh, RASSF2 / RFU, WIPF1 / Fold change vs veh, WIPF1 / RFU, LARP1B / Fold change vs veh, LARP1B / RFU, RASA1 / Fold change vs veh, RASA1 / RFU, RB1 / Fold change vs veh, RB1 / RFU, PPFIA1 / Fold change vs veh, PPFIA1 / RFU, MAT2A / Fold change vs veh, MAT2A / RFU, CCT5 / Fold change vs veh, CCT5 / RFU, WDR92 / Fold change vs veh, WDR92 / RFU, CUX1 / Fold change vs veh, CUX1 / RFU, TTC7A / Fold change vs veh, TTC7A / RFU, TMEM135 / Fold change vs veh, TMEM135 / RFU, DEPTOR / Fold change vs veh, DEPTOR / RFU, CPM / Fold change vs veh, CPM / RFU, DNAJB6 / Fold change vs veh, DNAJB6 / RFU, CACNA2D3 / Fold change vs veh, CACNA2D3 / RFU, DTX4 / Fold change vs veh, DTX4 / RFU, TFCP2 / Fold change vs veh, TFCP2 / RFU, GMCL1 /// GMCL1P1 / Fold change vs veh, GMCL1 /// GMCL1P1 / RFU, AEBP2 / Fold change vs veh, AEBP2 / RFU, SNHG1 /// SNORD22 /// SNORD25 /// SNORD26 /// SNORD27 /// SNORD28 /// SNORD29 /// SNORD31 / Fold change vs veh, SNHG1 /// SNORD22 /// SNORD25 /// SNORD26 /// SNORD27 /// SNORD28 /// SNORD29 /// SNORD31 / Fold change (Aza/veh), C12orf56 (ProbeSet 11735607_a_at) / Fold change (ACY-1035/veh), C12orf56 (ProbeSet 11735607_a_at) / Fold change (Aza/veh), FGFR1OP (ProbeSet 11751329_s_at) / Fold change (ACY-1035/veh), FGFR1OP (ProbeSet 11751329_s_at) / Fold change (Aza/veh), VPS36 (ProbeSet 11739960_a_at) / Fold change (ACY-1035/veh), VPS36 (ProbeSet 11739960_a_at) / RFU SYPL1 (11715823_x_at) / Fold change /veh SYPL1 (11715823_x_at) / RFU IGFBP7 (11715501_s_at) / Fold change /veh IGFBP7 (11715501_s_at) / RFU REEP3 (11722064_at) / Fold change /veh REEP3 (11722064_at) / RFU IGLL1 (11728026_x_at) / Fold change /veh IGLL1 (11728026_x_at): dose or concentration left out as unconfirmed
Settings: ProbeSet 11723930_at; LIST D

In the case of `Nc1ncn([C@@H]2O[C@H](CO)[C@@H](O)[C@H]2O)c(=O)n1` [azacitidine], the “RFU, CCT5” value is reported as 106.24 RFU.

From publication PMC5218480 (PLoS ONE, 2017)
